What was measured:
[1] = biological target: T1, Amine oxidase [flavin-containing] B (Homo sapiens, UniProt P27338); assay: Inhibition of monoamine oxidase B at 10 uM; details: read-out: INH
T1 sequence (P27338 whole entry): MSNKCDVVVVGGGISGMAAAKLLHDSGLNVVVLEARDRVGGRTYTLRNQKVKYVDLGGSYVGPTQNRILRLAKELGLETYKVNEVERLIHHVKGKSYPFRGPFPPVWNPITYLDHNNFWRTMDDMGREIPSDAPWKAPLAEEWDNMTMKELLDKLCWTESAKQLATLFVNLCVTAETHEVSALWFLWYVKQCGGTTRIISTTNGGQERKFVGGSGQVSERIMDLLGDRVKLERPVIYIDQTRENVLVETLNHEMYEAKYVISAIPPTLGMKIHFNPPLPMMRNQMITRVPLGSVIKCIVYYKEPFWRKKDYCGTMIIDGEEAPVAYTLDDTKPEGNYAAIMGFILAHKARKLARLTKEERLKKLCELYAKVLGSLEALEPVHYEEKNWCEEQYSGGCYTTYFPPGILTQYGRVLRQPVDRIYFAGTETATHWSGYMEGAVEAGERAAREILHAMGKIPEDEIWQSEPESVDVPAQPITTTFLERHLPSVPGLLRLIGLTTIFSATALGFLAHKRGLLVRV

[2] = biological target: T2, Amine oxidase [flavin-containing] A (Homo sapiens, UniProt P21397); assay: Inhibition of monoamine oxidase A at 10 uM; details: read-out: INH
T2 sequence (P21397 whole entry): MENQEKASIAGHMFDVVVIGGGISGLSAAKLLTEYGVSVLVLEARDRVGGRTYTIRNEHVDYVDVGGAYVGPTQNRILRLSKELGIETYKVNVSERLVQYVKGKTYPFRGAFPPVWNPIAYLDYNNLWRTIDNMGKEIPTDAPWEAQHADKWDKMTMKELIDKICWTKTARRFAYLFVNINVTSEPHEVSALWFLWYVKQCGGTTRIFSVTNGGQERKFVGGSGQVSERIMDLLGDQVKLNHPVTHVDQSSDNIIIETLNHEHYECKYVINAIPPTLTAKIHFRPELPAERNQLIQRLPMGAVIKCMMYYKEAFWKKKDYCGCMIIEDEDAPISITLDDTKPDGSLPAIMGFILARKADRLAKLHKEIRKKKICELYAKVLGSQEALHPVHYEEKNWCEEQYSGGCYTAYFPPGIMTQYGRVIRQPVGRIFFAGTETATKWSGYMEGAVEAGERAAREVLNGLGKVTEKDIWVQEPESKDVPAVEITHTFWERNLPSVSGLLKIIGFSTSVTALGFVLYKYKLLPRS

[3] = biological target: Acetylcholinesterase (Homo sapiens) (UniProt P22303); details: at 10 µM
Acetylcholinesterase (Homo sapiens), sequence (P22303 whole entry): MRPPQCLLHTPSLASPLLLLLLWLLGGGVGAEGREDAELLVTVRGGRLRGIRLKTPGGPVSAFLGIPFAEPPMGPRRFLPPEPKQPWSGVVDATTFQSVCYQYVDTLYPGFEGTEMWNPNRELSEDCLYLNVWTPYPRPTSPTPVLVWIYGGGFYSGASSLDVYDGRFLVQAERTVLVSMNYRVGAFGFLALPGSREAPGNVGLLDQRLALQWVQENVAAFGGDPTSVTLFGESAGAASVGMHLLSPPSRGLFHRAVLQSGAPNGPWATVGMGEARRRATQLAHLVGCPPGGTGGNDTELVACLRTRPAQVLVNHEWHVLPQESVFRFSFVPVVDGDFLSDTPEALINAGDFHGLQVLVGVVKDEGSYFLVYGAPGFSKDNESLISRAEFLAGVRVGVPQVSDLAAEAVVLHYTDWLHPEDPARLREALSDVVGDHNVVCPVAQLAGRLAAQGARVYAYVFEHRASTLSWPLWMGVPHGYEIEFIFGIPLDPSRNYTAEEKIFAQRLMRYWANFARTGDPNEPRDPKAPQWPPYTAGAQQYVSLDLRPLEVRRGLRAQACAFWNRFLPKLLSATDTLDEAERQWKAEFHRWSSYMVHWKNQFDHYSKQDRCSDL
Description: Inhibition of acetylcholinesterase at 10 uM by Ellman's method

COc1ccc(O[C@@H]2O[C@H](CO)[C@@H](O)[C@H](O)[C@H]2O)c2c(=O)c3c(O)c(-c4cc(O)c5oc6cc(O)cc(O)c6c(=O)c5c4O)c(O)cc3oc12
inhibition at 10 µM [1]: 39.1%
inhibition at 10 µM [2]: 21.4%
inhibition [3]: 12.3%

COc1ccc(O)c2c(=O)c3c(O)cc(O[C@@H]4O[C@H](CO)[C@@H](O)[C@H](O)[C@H]4O)c(OC)c3oc12
inhibition at 10 µM [1]: 47.8%
inhibition at 10 µM [2]: 40.2%
inhibition [3]: 17.6%

O=c1c2c(O)c(-c3cc(O)c4oc5cc(O)cc(O)c5c(=O)c4c3O)c(O)cc2oc2c(O)ccc(O)c12
inhibition at 10 µM [1]: 41.1%
inhibition at 10 µM [2]: 14.8%
inhibition [3]: 20.9%

COc1c(O)ccc2c(=O)c3c(OC4O[C@H](CO)[C@@H](O)[C@H](O)[C@H]4O)cc(O)c(OC)c3oc12 (some centres not stated)
inhibition at 10 µM [1]: 70.5%
inhibition at 10 µM [2]: 15%
inhibition [3]: 1.5%

COc1cc(O)c2c(=O)c3c(O)ccc(O)c3oc2c1 [BELLIDIFOLIN]
inhibition at 10 µM [1]: 65.2%
inhibition at 10 µM [2]: 98.9%
inhibition [3]: 21.9%

O=c1c2c(O)cc(O)cc2oc2c(O)ccc(O)c12 [DEMETHYLBELLIDIFOLIN]
inhibition at 10 µM [1]: 59%
inhibition at 10 µM [2]: 90.5%
inhibition [3]: 17.5%

O=c1c2c(O)cc(O)cc2oc2c(O)ccc(O[C@@H]3O[C@H](CO)[C@@H](O)[C@H](O)[C@H]3O)c12 [NORSWERTIANOLIN]
inhibition at 10 µM [1]: 28.9%
inhibition at 10 µM [2]: 12.2%
inhibition [3]: 4.4%

C#CCN(C)Cc1ccccc1 [PARGYLINE]
inhibition at 10 µM [1]: 98.2%
inhibition at 10 µM [2]: 60%

COc1cc(O)c2c(=O)c3c(O[C@@H]4O[C@H](CO)[C@@H](O)[C@H](O)[C@H]4O)ccc(O)c3oc2c1 [SWERTIANOLIN]
inhibition at 10 µM [1]: 93.6%
inhibition at 10 µM [2]: 43.8%
inhibition [3]: 9.8%

COc1cc(O)c2c(=O)c3c(O)c(O[C@@H]4O[C@H](CO)[C@@H](O)[C@H](O)[C@H]4O)ccc3oc2c1OC [TRIPTEXANTHOSIDE C]
inhibition at 10 µM [1]: 38.8%
inhibition at 10 µM [2]: 13.4%
inhibition [3]: 43.7%

COc1cc(O)c2c(=O)c3cc(O[C@@H]4O[C@H](CO)[C@@H](O)[C@H](O)[C@H]4O)ccc3oc2c1OC [VERATRILOSIDE]
inhibition at 10 µM [1]: 56%
inhibition at 10 µM [2]: 19.4%
inhibition [3]: 28.2%
